US10842789B2, “Treatment of schizophrenia” (PIERRE FABRE MEDICAMENT, priority 2017, dated 2020)
Marks after values point to notes of the source that are not given here.

Columns and labels:
[1] = target: T1, human recombinant dopamine D2L receptor (Homo sapiens, UniProt P14416); assay: [3H] spiperone binding, cells expressing human recombinant dopamine D2L receptors
T1 construct: expressed in transfected cells
Description: (§1) The activity of F17464 was evaluated at recombinant dopaminergic receptors in vitro for its profile at D2 and D3 receptor. […] F17464 was also evaluated for its agonist, partial agonist, or antagonist activity at the dopamine D3 receptor by using the MAP-kinase activity test on human recombinant dopamine D3 receptors (Cussac et al., Mol. Pharmacol. 1999, 56, 1025-1030).
(§2) As used herein, the term “selective D3 antagonist” refers to a D3 antagonist, as defined here above, that has more affinity for the D3 receptor than for the D2 receptor (D2S and/or D2L). Affinity of a compound for a receptor is usually expressed as a Ki value. Preferentially, the relative binding affinities are determined in competitive radioligand binding studies using cells expressing human recombinant dopamine D3, D2S or D2L receptors (Newman-Tancredi et al. British Journal of Pharmacology, 2007, 151, 237-252). More preferentially, it is defined in [^3H] spiperone binding studies using cells expressing human recombinant dopamine D3 receptors or human recombinant dopamine D2L or D2S receptors (Cussac et al. Naunyn-Schmiedeberg's Arch Pharmacol, 2000, 361, 569-572).

[2] = target: T2, human recombinant dopamine D2S receptor (Homo sapiens, UniProt P14416); assay: [3H] spiperone binding, cells expressing human recombinant dopamine D2S receptors
T2 construct: expressed in transfected cells
T2 sequence (P14416 1-414 isoform P14416-2): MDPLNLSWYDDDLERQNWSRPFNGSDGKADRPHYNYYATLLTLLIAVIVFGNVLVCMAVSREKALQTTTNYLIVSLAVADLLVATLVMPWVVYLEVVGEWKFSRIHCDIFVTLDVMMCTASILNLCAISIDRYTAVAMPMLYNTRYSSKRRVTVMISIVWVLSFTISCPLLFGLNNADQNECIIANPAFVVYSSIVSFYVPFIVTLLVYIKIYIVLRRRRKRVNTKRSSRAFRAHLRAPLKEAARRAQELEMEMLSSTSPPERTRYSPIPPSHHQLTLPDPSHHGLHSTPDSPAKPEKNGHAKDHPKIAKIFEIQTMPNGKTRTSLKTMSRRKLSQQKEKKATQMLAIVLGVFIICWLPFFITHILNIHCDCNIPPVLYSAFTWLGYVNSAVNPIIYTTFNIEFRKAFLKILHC
Description: as §1, §2

[3] = test system: patients with acute exacerbation of schizophrenia; assay: Double-blind placebo-controlled phase II study, patients with acute exacerbation of schizophrenia; type: in vivo, human
Description: N-(3-{4-[4-(8-oxo-8H-[1,3]dioxolo[4,5-g]chromen-7-yl)-butyl]-piperazin-1-yl}-phenyl)-methanesulfonamide hydrochloride has been tested in a placebo-controlled study of patients with an acute exacerbation of schizophrenia.
This double-blind, parallel group, multicenter study included patients with acute exacerbation of schizophrenia treated either with F17464 fixed dose 40 mg (20 mg bid) or placebo (randomization 1:1) for 6 weeks as antipsychotic monotherapy. The primary objective was to evaluate the efficacy of F17464 in comparison to placebo. The primary efficacy criterion was the PANSS (Positive and Negative Syndrome Scale) total score change from baseline to Day 43 on the Full Analysis Set (FAS).
Inclusion criteria included a well-documented diagnosis of schizophrenia for a minimum of 1 year, and a recent acute exacerbation characterized by a PANSS total score at screening ≥70 and <120 with no significant change of the PANSS positive subscore between the screening and randomization visits; and Clinical Global Impression of Severity (CGI-S) score ≥4.
All patients had discontinued previous treatments within the week prior to administration of study medication.
Following screening, patients were maintained in hospital till the 3rd week of treatment. Patients who had CGI-I (Clinical Global Impression of Improvement) score of ≤3 after 3 or 4 weeks were then eligible for hospital discharge and could continue study participation as outpatients.
The PANSS scores of the tested patients were established each week.
Schizophrenia History: Before Screening Visit • Patient with a current primary diagnosis of schizophrenia undergoing an acute exacerbation with prominent “active phase” symptoms, as described by the Diagnostic and Statistical Manual of Mental Disorders, 4th edition—Text Revision (DSM IV-TR) using the MINI 6.0 (Mini-International Neuropsychiatric Interview) for schizophrenia and psychotic disorders related to DSM IV-TR; • For a minimum of 1 year, well-documented diagnosis with the first hospitalization for acute exacerbation of schizophrenia; • Since the diagnosis of schizophrenia, the average number of hospitalizations should be no higher than 2 per year (the minimum duration of hospitalization should be more than 4 days); • During the year before screening visit, maximum 3 acute psychotic episodes that required hospitalization or change of antipsychotic medication or other therapeutic intervention; • Adequate clinical response to well-conducted treatment courses during previous acute episodes. A well conducted treatment course is defined as an antipsychotic treatment with the usual doses for at least 4 weeks. Current Acute Episode: • Structured Clinical Interview for the Positive And Negative Syndrome Scale (SCI-PANSS) with a PANSS total score ≥70 to <120 (at screening and randomization visits); • Rating of at least 4 (moderate) on at least 2 of the following 4 PANSS positive symptoms: delusions, hallucinatory behavior, conceptual disorganization, suspiciousness/persecution; • Clinical Global Impression of Severity (CGI-S) score ≥4 (moderate or severe). • Antipsychotic initiated for this acute episode and/or ongoing chronic antipsychotic treatment, with a maximum of 2 antipsychotics in total needed to be changed (due to inefficacy or safety reasons); • Hospitalization and/or treatment for the current psychotic episode for less than 2 weeks prior to screening visit; • No significant improvement of PANSS total score between enrolment (screening visit) and inclusion (randomization visit) corresponding to a score improvement <20% on positive symptoms subscale. Examination: • Normal physical examination results, vital signs and clinical laboratory test results or other results judged not clinically significant by the investigator; • Body mass index (BMI)≥18 and ≤35 kg/m^2 inclusive. […]

D3 = target: T3, D3 (Homo sapiens, UniProt P35462); conditions: healthy subjects, after two single dose levels; cited from earlier work
T3 construct: from tissue; host or cells: brain of healthy subjects in vivo (PET)
T3 sequence (P35462 whole entry): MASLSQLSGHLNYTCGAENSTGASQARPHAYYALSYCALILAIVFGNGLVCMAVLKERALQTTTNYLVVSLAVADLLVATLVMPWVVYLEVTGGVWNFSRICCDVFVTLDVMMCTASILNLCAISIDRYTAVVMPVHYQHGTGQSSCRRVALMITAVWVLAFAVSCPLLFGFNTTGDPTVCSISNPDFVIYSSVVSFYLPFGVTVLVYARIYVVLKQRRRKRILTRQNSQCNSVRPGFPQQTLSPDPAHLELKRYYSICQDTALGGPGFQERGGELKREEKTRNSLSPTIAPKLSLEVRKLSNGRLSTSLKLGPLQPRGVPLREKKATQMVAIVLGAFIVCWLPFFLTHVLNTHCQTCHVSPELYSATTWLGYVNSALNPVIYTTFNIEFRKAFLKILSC

D2 receptor = conditions: healthy subjects, after two single dose levels; cited from earlier work
[4] = F17464 versus placebo, FAS population n = 67
[5] = F17464 versus placebo, NS subgroup n = 29
[6] = NS subgroup versus FAS population
[7] = NS subgroup versus FAS population, score points
[8] = baseline to end of treatment, FAS

T1 sequence (P14416 whole entry): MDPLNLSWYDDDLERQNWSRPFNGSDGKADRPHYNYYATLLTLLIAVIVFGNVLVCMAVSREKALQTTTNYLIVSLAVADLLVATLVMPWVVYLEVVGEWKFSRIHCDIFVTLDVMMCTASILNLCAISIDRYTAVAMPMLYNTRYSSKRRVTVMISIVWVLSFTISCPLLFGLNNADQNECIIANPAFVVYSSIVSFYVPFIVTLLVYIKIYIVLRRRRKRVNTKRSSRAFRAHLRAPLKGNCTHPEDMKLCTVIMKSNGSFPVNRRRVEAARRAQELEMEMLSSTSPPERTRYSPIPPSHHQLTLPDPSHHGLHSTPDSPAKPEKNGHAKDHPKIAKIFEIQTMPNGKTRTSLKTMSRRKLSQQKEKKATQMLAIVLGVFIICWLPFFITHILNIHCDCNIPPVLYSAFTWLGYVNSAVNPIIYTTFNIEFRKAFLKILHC

CS(=O)(=O)Nc1cccc(N2CCN(CCCCc3coc4cc5c(cc4c3=O)OCO5)CC2)c1 [F17464, N-(3-{4-[4-(8-oxo-8H-[1,3]dioxolo[4,5-g]chromen-7-yl)-butyl]-piperazin-1-yl}-phenyl)-methanesulfonamide]
affinity for dopamine D2L receptor, times weaker than D3 ([1]; D2L versus D3): 71 times | Ki ([1]; [3H] spiperone binding): 12.1 nM | affinity for dopamine D2S receptor, times weaker than D3 ([2]; D2S versus D3): 38 times | Ki ([2]; [3H] spiperone binding): 6.5 nM | clinically relevant hepatic, metabolic or cardio-vascular disorder ([3]; 20 mg bid, 6 weeks): no clinically relevant hepatic, metabolic (including clinically relevant weight gain) or cardio-vascular disorder | overall incidence of treatment-emergent adverse events (TEAEs) ([3]; 20 mg bid, 6 weeks): 70.1% | Treatment effect on change from baseline, PANSS general psychopathology [LSmean (SE)] [3, 4]: −3.6 (1.3) * | Treatment effect on change from baseline, PANSS negative symptoms [LSmean (SE)] [3, 4]: −0.7 (0.6)^ | Treatment effect on change from baseline, PANSS positive symptoms [LSmean (SE)] [3, 4]: −1.9 (1.0) * | Treatment effect on change from baseline, PANSS general psychopathology [LSmean (SE)] [3, 5]: −6.4 (2.0) * | Treatment effect on change from baseline, PANSS negative symptoms [LSmean (SE)] [3, 5]: −2.7 (1.1) * | Treatment effect on change from baseline, PANSS positive symptoms [LSmean (SE)] [3, 5]: −4.3 (1.6) * | Treatment effect on change from baseline, PANSS total score [LSmean (SE)] [3, 5]: −13 (4.1) * | PANSS general psychopathology, change from baseline [LSmean (SE)] ([3]; FAS population n = 67, Day 43): −6.6 (1.0) * | PANSS negative symptoms, change from baseline [LSmean (SE)] ([3]; FAS population n = 67, Day 43): −1.7 (0.4)^ | PANSS positive symptoms, change from baseline [LSmean (SE)] ([3]; FAS population n = 67, Day 43): −6.3 (0.8) * | Discontinuation for Adverse Event, number of patients ([3]; FAS, n = 67): 2 | Discontinuation for Adverse Event, percent of patients ([3]; FAS, n = 67): (3.0%) | Discontinuation for Lack Of Efficacy/Worsening of schizophrenia, number of patients ([3]; FAS, n = 67): 11 | Discontinuation for Lack Of Efficacy/Worsening of schizophrenia, percent of patients ([3]; FAS, n = 67): (16.4%) | reduction of PANSS total score versus placebo over time ([3]; From Day 22, FAS, LOCF): statistically higher than in placebo group | PANSS general psychopathology, change from baseline [LSmean (SE)] ([3]; NS subgroup n = 29, Day 43): −9.3 (1.5) * | PANSS negative symptoms, change from baseline [LSmean (SE)] ([3]; NS subgroup n = 29, Day 43): −4.3 (0.8) * | PANSS positive symptoms, change from baseline [LSmean (SE)] ([3]; NS subgroup n = 29, Day 43): −8.4 (1.2) * | PANSS total score, adjusted change from baseline [LSmean (SE)] ([3]; NS subgroup n = 29, Day 43): −21.8 (2.9) * | Difference of treatment effect, PANSS general psychopathology, percent [3, 6]: 78% | Difference of treatment effect, PANSS negative symptoms, percent [3, 6]: 285% | Difference of treatment effect, PANSS positive symptoms, percent [3, 6]: 126% | Difference of treatment effect, PANSS total score, percent [3, 6]: 110% | Difference of treatment effect, PANSS general psychopathology [3, 7]: 2.8 | Difference of treatment effect, PANSS negative symptoms [3, 7]: 2 | Difference of treatment effect, PANSS positive symptoms [3, 7]: 2.4 | Difference of treatment effect, PANSS total score [3, 7]: 6.8 | Response rate, PANSS total score reduction by 20% [3, 8]: 49.3% | Response rate, PANSS total score reduction by 30% [3, 8]: 27.0% | Time to first sustained PANSS 20% or 30% response ([3]; compared to placebo group, from D21 up to Day 42): Shorter | PANSS positive score and positive factor, defined by Marder, versus placebo ([3]; secondary criteria, FAS): statistically significantly greater | D3 binding rate (PET) (D3): strong and long-lasting | binding rate to D2 receptor (PET) (D2 receptor): modest
